From publication PMC6272208, “2-Keto-D-Gluconate-Yielding Membrane-Bound D-Glucose Dehydrogenase from Arthrobacter globiformis C224: Purification and Characterization” (Molecules, 2015)
Structures can show the parent of a compound that is named as a salt.

How the values were obtained:
Assay type in all cases: biochemical
[1] = test system: T1, membrane-bound D-glucose dehydrogenase (GlcDH) from Arthrobacter globiformis C224; test: single-substrate kinetics, Lineweaver-Burk; settings: pH 5.0 (Table 5); general assay uses ferricyanide as electron acceptor in McIlvaine buffer, stated there as pH 3.0
T1 construct: gene gcd; native, purified from membrane fraction of C224 (Triton X-114, precipitations, hydroxylapatite); 87 kDa, single SDS-PAGE band, no subunits
Description: single-substrate kinetics, Lineweaver-Burk on membrane-bound D-glucose dehydrogenase (GlcDH) from Arthrobacter globiformis […]

[2] = test system: T1, membrane-bound D-glucose dehydrogenase (GlcDH) from Arthrobacter globiformis C224; test: dual-substrate initial velocity kinetics (ping-pong); settings: artificial electron acceptor; glucose as co-substrate (5-80 mM), PMS 50-200 µM
[3] = target: T1, membrane-bound D-glucose dehydrogenase (GlcDH) from Arthrobacter globiformis C224; test: steady-state product inhibition kinetics, Lineweaver-Burk; settings: competitive towards PMS; PMS varied at 33 mM glucose, gluconic acid 0-200 mM; read-out: inhibition constant

SMILES | Km [1] | further results
OC1OC[C@@H](O)[C@H](O)[C@H]1O (stereo partly drawn) [D-xylose] | 340 ± 20 µM | 
OC[C@H]1OC(O)[C@H](O)[C@@H](O)[C@H]1O (stereo partly drawn) [D-galactose] | 460 ± 20 µM | 
OC[C@H]1OC(O)[C@H](O)[C@@H](O)[C@@H]1O (stereo partly drawn) [D-glucose] | 210 ± 10 µM | 
OC[C@H]1O[C@H](O[C@H]2[C@H](O)[C@@H](O)C(O)O[C@@H]2CO)[C@H](O)[C@@H](O)[C@@H]1O (stereo partly drawn) [maltose] | 590 ± 30 µM | 
C[n+]1c2ccccc2nc2ccccc21 [N-methylphenazonium methyl sulfate] |  | Km [2]: 400 µM
O=C(O)[C@H](O)[C@@H](O)[C@H](O)[C@H](O)CO [gluconic acid] |  | Ki [3]: 11.4 mM
